Assay results: PMC5218480 (PLoS ONE, 2017)

System: MV-4-11 cells
Assay: Gene expression microarray analysis (Affymetrix PrimeView) and GSEA
Type: cell-based, human
Parameters: RFU PODN (11730768_x_at) / Fold change /veh PODN (11730768_x_at) / RFU LINC00158 (11744669_a_at) / Fold change /veh LINC00158 (11744669_a_at) / RFU DUSP10 (11751237_a_at) / Fold change /veh DUSP10 (11751237_a_at) / RFU ID3 (11757404_x_at) / Fold change /veh ID3 (11757404_x_at) / RFU PLEKHG5 (11737974_s_at) / Fold change /veh PLEKHG5 (11737974_s_at) / RFU LRRC4B (11730491_at) / Fold change /veh LRRC4B (11730491_at) / RFU GIMAP4 (11747438_a_at) / Fold change /veh GIMAP4 (11747438_a_at) / RFU KRT8 (11758183_x_at) / Fold change /veh KRT8 (11758183_x_at) / RFU CNN1 (11734310_a_at) / Fold change /veh CNN1 (11734310_a_at) / RFU VPS37D (11726825_at) / Fold change /veh VPS37D (11726825_at) / RFU C10orf10 (11716522_x_at) / Fold change /veh C10orf10 (11716522_x_at) / RFU KIR2DL2 /// KIR2DL4 /// KIR2DL5A /// KIR2DL5B /// KIR2DS1 /// KIR2DS2 /// KIR2DS3 /// KIR2DS4 /// KIR3DL3 /// KIR3DL3 /// KIR3DS1 (11738374_at) / Fold change /veh KIR2DL2 /// KIR2DL4 /// KIR2DL5A /// KIR2DL5B /// KIR2DS1 /// KIR2DS2 /// KIR2DS3 /// KIR2DS4 /// KIR3DL3 /// KIR3DL3 /// KIR3DS1 (11738374_at) / RFU C1QL1 (11718748_at) / Fold change /veh C1QL1 (11718748_at) / RFU TMPRSS4 (11747572_a_at) / Fold change /veh TMPRSS4 (11747572_a_at) / RFU HAMP (11756126_x_at) / Fold change /veh HAMP (11756126_x_at) / RFU RNFT2 (11725882_a_at) / Fold change /veh RNFT2 (11725882_a_at) / RFU NR4A2 (11747474_a_at) / Fold change /veh NR4A2 (11747474_a_at) / RFU ABCC12 (11746883_a_at) / Fold change /veh ABCC12 (11746883_a_at) / RFU TMEM136 (11760407_x_at) / Fold change /veh TMEM136 (11760407_x_at) / RFU CLDN22 /// WWC2 (11732394_at) / Fold change /veh CLDN22 /// WWC2 (11732394_at) / RFU HLA-DPB1 (11760878_x_at) / Fold change /veh HLA-DPB1 (11760878_x_at) / RFU SPINT1 (11716480_a_at) / Fold change /veh SPINT1 (11716480_a_at) / RFU GAP43 (11754022_s_at) / Fold change /veh GAP43 (11754022_s_at) / RFU A4GNT (11735810_at) / Fold change /veh A4GNT (11735810_at) / RFU PRB3 (11715151_x_at) / Fold change /veh PRB3 (11715151_x_at) / RFU TUBB4B (11761932_at) / Fold change /veh TUBB4B (11761932_at) / RFU CAPN14 (11732068_a_at) / Fold change /veh CAPN14 (11732068_a_at) / RFU TMCC2 (11721928_a_at) / Fold change /veh TMCC2 (11721928_a_at) / RFU IRGQ (11745062_a_at) / Fold change /veh IRGQ (11745062_a_at) / RFU FAM174B (11720279_a_at) / Fold change /veh FAM174B (11720279_a_at) / RFU TMPRSS4 (11748680_a_at) / Fold change /veh TMPRSS4 (11748680_a_at) / RFU FAM212B (11763350_a_at) / Fold change /veh FAM212B (11763350_a_at) / RFU PLEKHG5 (11743358_a_at) / Fold change /veh PLEKHG5 (11743358_a_at) / RFU ZSCAN30 (11745921_a_at) / Fold change /veh ZSCAN30 (11745921_a_at) / RFU CMKLR1 (11741424_a_at) / Fold change /veh CMKLR1 (11741424_a_at) / RFU LOC101060620 /// MAPK8IP1 (11723275_at) / Fold change /veh LOC101060620 /// MAPK8IP1 (11723275_at) / RFU SPTSSB (11747773_x_at) / Fold change /veh SPTSSB (11747773_x_at) / RFU PRSS12 (11739890_at) / Fold change /veh PRSS12 (11739890_at) / RFU BIN1 (11741810_x_at) / Fold change /veh BIN1 (11741810_x_at) / RFU WNT11 (11732464_a_at) / Fold change /veh WNT11 (11732464_a_at) / RFU C10orf10 (11716521_a_at) / Fold change /veh C10orf10 (11716521_a_at) / RFU C5orf56 (11738089_at) / Fold change /veh C5orf56 (11738089_at) / RFU CYB561 (11721691_x_at) / Fold change /veh CYB561 (11721691_x_at) / RFU ANKRD19P (11752326_a_at) / Fold change /veh ANKRD19P (11752326_a_at) / RFU OR2T12 /// OR2T33 /// OR2T8 (11738714_s_at) / Fold change /veh OR2T12 /// OR2T33 /// OR2T8 (11738714_s_at) / RFU VCAN (11748164_a_at) / Fold change /veh VCAN (11748164_a_at) / RFU JSRP1 (11732532_at) / Fold change /veh JSRP1 (11732532_at) / RFU KRTAP10-11 (11738290_x_at) / Fold change /veh KRTAP10-11 (11738290_x_at) / RFU MYO3A (11730013_a_at) / Fold change /veh MYO3A (11730013_a_at) / RFU EBF3 (11725865_a_at) / Fold change /veh EBF3 (11725865_a_at) / RFU CAMK2N1 (11719241_x_at) / Fold change /veh CAMK2N1 (11719241_x_at) / RFU C5orf56 (11738088_a_at) / Fold change /veh C5orf56 (11738088_a_at) / RFU OLFML3 (11715873_a_at) / Fold change /veh OLFML3 (11715873_a_at) / RFU LOC100653217 /// NTM (11731650_a_at) / Fold change /veh LOC100653217 /// NTM (11731650_a_at) / RFU MAPK11 (11762145_a_at) / Fold change /veh MAPK11 (11762145_a_at) / RFU FIZ1 (11724087_x_at) / Fold change /veh FIZ1 (11724087_x_at) / RFU OASL (11726364_x_at) / Fold change /veh OASL (11726364_x_at) / RFU SOX15 (11748057_x_at) / Fold change /veh SOX15 (11748057_x_at) / RFU CD79A (11719716_a_at) / Fold change /veh CD79A (11719716_a_at) / RFU HIST1H1D (11736915_at) / Fold change /veh HIST1H1D (11736915_at) / RFU CASKIN2 (11723855_a_at) / Fold change /veh CASKIN2 (11723855_a_at) / RFU LOC730098 (11760151_x_at) / Fold change /veh LOC730098 (11760151_x_at) / RFU OR4N2 (11742367_at) / Fold change /veh OR4N2 (11742367_at) / RFU PRRT2 (11749266_a_at) / Fold change /veh PRRT2 (11749266_a_at) / RFU SNX32 (11753110_a_at) / Fold change /veh SNX32 (11753110_a_at) / RFU CDHR5 (11726645_a_at) / Fold change /veh CDHR5 (11726645_a_at) / RFU RCAN1 (11760418_a_at) / Fold change /veh RCAN1 (11760418_a_at) / RFU FAM167A (11723789_a_at) / Fold change /veh FAM167A (11723789_a_at) / RFU FAM26E (11764081_at) / Fold change /veh FAM26E (11764081_at) / RFU ISYNA1 (11749810_s_at) / Fold change /veh ISYNA1 (11749810_s_at) / RFU ACY1 (11761880_at) / Fold change /veh ACY1 (11761880_at) / RFU 11764098_at / Fold change /veh 11764098_at / RFU SAMD14 (11745864_x_at) / Fold change /veh SAMD14 (11745864_x_at) / RFU NPB (11741838_a_at) / Fold change /veh NPB (11741838_a_at) / RFU TMPRSS6 (11731388_a_at) / Fold change /veh TMPRSS6 (11731388_a_at) / RFU KRTAP10-2 (11738614_at) / Fold change /veh KRTAP10-2 (11738614_at) / RFU ARHGAP8 /// PRR5-ARHGAP8 (11727945_x_at) / Fold change /veh ARHGAP8 /// PRR5-ARHGAP8 (11727945_x_at) / RFU KRTAP5-7 /// NADSYN1 (11734609_at) / Fold change /veh KRTAP5-7 /// NADSYN1 (11734609_at) / RFU RASL12 (11751679_a_at) / Fold change /veh RASL12 (11751679_a_at) / RFU CDKN2B (11736163_a_at) / Fold change /veh CDKN2B (11736163_a_at) / RFU PRF1 (11729649_at) / Fold change /veh PRF1 (11729649_at) / RFU, ZNF638 /// ZNF638-IT1 / Fold change vs veh, ZNF638 /// ZNF638-IT1 / RFU, PANK3 / Fold change vs veh, PANK3 / RFU, SH3YL1 / Fold change vs veh, SH3YL1 / RFU, ZEB2 / Fold change vs veh, ZEB2 / RFU, NRIP1 / Fold change vs veh, NRIP1 / RFU, PTTG1IP / Fold change vs veh, PTTG1IP / RFU, CAPN2 / Fold change vs veh, CAPN2 / RFU, MED14 / Fold change vs veh, MED14 / RFU, SNORA58 / Fold change vs veh, SNORA58 / RFU, C1orf63 / Fold change vs veh, C1orf63 / RFU, LRRFIP1 / Fold change vs veh, LRRFIP1 / RFU, NDUFAF7 / Fold change vs veh, NDUFAF7 / RFU, SLC12A2 / Fold change vs veh, SLC12A2 / RFU, IBTK / Fold change vs veh, IBTK / RFU, ESF1 / Fold change vs veh, ESF1 / Fold change vs veh, TMEM50B / RFU, TAOK1 / Fold change vs veh, TAOK1 / RFU, ACBD3 / Fold change vs veh, ACBD3 / RFU, TMA16 / Fold change vs veh, TMA16 / RFU, RWDD3 / Fold change vs veh, RWDD3 / RFU, BCAT1 / Fold change vs veh, BCAT1 / RFU, EDEM3 / Fold change vs veh, EDEM3 / RFU, TMEM33 / Fold change vs veh, TMEM33 / RFU, WDR75 / Fold change vs veh, WDR75 / RFU, AHCTF1 / Fold change vs veh, AHCTF1 / RFU, TFRC / Fold change vs veh, TFRC / RFU, ZDHHC17 / Fold change vs veh, ZDHHC17 / RFU, NOM1 / Fold change vs veh, NOM1 / RFU, ARL8B / Fold change vs veh, ARL8B / RFU, ZBTB11 / Fold change vs veh, ZBTB11 / RFU, TAMM41 / Fold change vs veh, TAMM41 / RFU, KIAA1704 /// LOC100996395 / Fold change vs veh, KIAA1704 /// LOC100996395 / RFU, ING1 / Fold change vs veh, ING1 / RFU, TRMT61B / Fold change vs veh, TRMT61B / RFU, FUBP3 / Fold change vs veh, FUBP3 / RFU, TP53 / Fold change vs veh, TP53 / RFU, TNKS2 / Fold change vs veh, TNKS2 / RFU, ZFP14 / Fold change vs veh, ZFP14 / RFU, ACTR2 / Fold change vs veh, ACTR2 / RFU, PPP3R1 / Fold change vs veh, PPP3R1 / RFU, PIK3R1 / Fold change vs veh, PIK3R1 / RFU, HNRNPA1 / Fold change vs veh, HNRNPA1 / RFU, RNF170 / Fold change vs veh, RNF170 / RFU, ZNF28 / Fold change vs veh, ZNF28 / RFU, RNGTT / Fold change vs veh, RNGTT / RFU, OGT / Fold change vs veh, OGT / RFU, BRD1 / Fold change vs veh, BRD1 / RFU, MARS / Fold change vs veh, MARS / RFU, ZNF655 / Fold change vs veh, ZNF655 / RFU, FAHD1 / Fold change vs veh, FAHD1 / RFU, BDP1 / Fold change vs veh, BDP1 / RFU, LRRCC1 / Fold change vs veh, LRRCC1 / RFU, ARID1A / Fold change vs veh, ARID1A / RFU, ZNF146 / Fold change vs veh, ZNF146 / RFU, ZNF330 / Fold change vs veh, ZNF330 / RFU, GPN3 / Fold change vs veh, GPN3 / RFU, C9orf123 / Fold change vs veh, C9orf123 / RFU, N4BP2L2 / Fold change vs veh, N4BP2L2 / RFU, ARFIP1 / Fold change vs veh, ARFIP1 / RFU, FAM179B / Fold change vs veh, FAM179B / RFU, BCL10 / Fold change vs veh, BCL10 / RFU, UHRF1BP1L / Fold change vs veh, UHRF1BP1L / RFU, BET1 / Fold change vs veh, BET1 / RFU, CNOT2 / Fold change vs veh, CNOT2 / RFU, ZNF268 / Fold change vs veh, ZNF268 / Fold change vs veh, ZNF507 / RFU, DGCR2 / Fold change vs veh, DGCR2 / RFU, WDSUB1 / Fold change vs veh, WDSUB1 / Fold change vs veh, HSP90B1 /// MIR3652 / RFU, ADSS / Fold change vs veh, ADSS / RFU, GK / Fold change vs veh, GK / RFU, ZNF148 / Fold change vs veh, ZNF148 / RFU, TAF9 / Fold change vs veh, TAF9 / RFU, SLC1A5 / Fold change vs veh, SLC1A5 / RFU, SLMO2 / Fold change vs veh, SLMO2 / RFU, ABCC4 / Fold change vs veh, ABCC4 / RFU, LOC101060439 /// RAP1B / Fold change vs veh, LOC101060439 /// RAP1B / RFU, RFX7 / Fold change vs veh, RFX7 / RFU, GTPBP10 / Fold change vs veh, GTPBP10 / RFU, CNEP1R1 / Fold change vs veh, CNEP1R1 / RFU, BIVM-ERCC5 /// ERCC5 / Fold change vs veh, BIVM-ERCC5 /// ERCC5 / RFU, ILF3 / Fold change vs veh, ILF3 / RFU 11762660_at / Fold change /veh 11762660_at / RFU VCAN (11757783_s_at) / Fold change /veh VCAN (11757783_s_at) / RFU DDX43 (11728927_at) / Fold change /veh DDX43 (11728927_at) / RFU KRT8 (11758188_x_at) / Fold change /veh KRT8 (11758188_x_at) / RFU NKD1 (11759106_at) / Fold change /veh NKD1 (11759106_at) / RFU SRD5A1 (11742802_a_at) / Fold change /veh SRD5A1 (11742802_a_at) / RFU TPSAB1 /// TPSB2 (11721975_s_at) / Fold change /veh TPSAB1 /// TPSB2 (11721975_s_at) / RFU GSTM3 (11746129_a_at) / Fold change /veh GSTM3 (11746129_a_at) / RFU IL23R (11737362_x_at) / Fold change /veh IL23R (11737362_x_at) / RFU TMEM51 (11727254_a_at) / Fold change /veh TMEM51 (11727254_a_at) / RFU PIWIL2 (11732686_x_at) / Fold change /veh PIWIL2 (11732686_x_at) / RFU ORM1 (11744905_x_at) / Fold change /veh ORM1 (11744905_x_at) / RFU CCDC152 (11743942_at) / Fold change /veh CCDC152 (11743942_at) / RFU ECM1 (11717891_a_at) / Fold change /veh ECM1 (11717891_a_at) / RFU IL23R (11748794_a_at) / Fold change /veh IL23R (11748794_a_at) / RFU TNFAIP8L3 (11732012_x_at) / Fold change /veh TNFAIP8L3 (11732012_x_at) / RFU MBOAT4 (11741988_at) / Fold change /veh MBOAT4 (11741988_at) / RFU 11764193_at / Fold change /veh 11764193_at / RFU TMEM53 (11763286_at) / Fold change /veh TMEM53 (11763286_at) / RFU MAGEB2 (11727129_at) / Fold change /veh MAGEB2 (11727129_at) / RFU TMEM200A (11744735_a_at) / Fold change /veh TMEM200A (11744735_a_at) / RFU CCDC152 (11751479_a_at) / Fold change /veh CCDC152 (11751479_a_at) / RFU FAM211A (11726209_a_at) / Fold change /veh FAM211A (11726209_a_at) / RFU RGS16 (11746705_a_at) / Fold change /veh RGS16 (11746705_a_at) / RFU VCAN (11755009_s_at) / Fold change /veh VCAN (11755009_s_at) / RFU RHOB (11743442_s_at) / Fold change /veh RHOB (11743442_s_at) / RFU RGS16 (11720943_a_at) / Fold change /veh RGS16 (11720943_a_at) / RFU RGS16 (11720944_at) / Fold change /veh RGS16 (11720944_at) / RFU, VPS4B / Fold change vs veh, VPS4B / RFU, CREB1 / Fold change vs veh, CREB1 / RFU, DNAJC13 / Fold change vs veh, DNAJC13 / RFU, GNAQ / Fold change vs veh, GNAQ / RFU, CDK5R1 / Fold change vs veh, CDK5R1 / RFU, ZRANB3 / Fold change vs veh, ZRANB3 / RFU, CUL4A / Fold change vs veh, CUL4A / RFU, CCNY / Fold change vs veh, CCNY / RFU, UFL1 / Fold change vs veh, UFL1 / RFU, COG3 / Fold change vs veh, COG3 / RFU, DIAPH2 / Fold change vs veh, DIAPH2 / RFU, SKA2 / Fold change vs veh, SKA2 / RFU, AFF3 / Fold change vs veh, AFF3 / RFU, LMF1 / Fold change vs veh, LMF1 / RFU, IPO11 / Fold change vs veh, IPO11 / RFU, DFFB / Fold change vs veh, DFFB / RFU, FOXP1 / Fold change vs veh, FOXP1 / RFU, CARD8 / Fold change vs veh, CARD8 / RFU, STRN3 / Fold change vs veh, STRN3 / RFU, ADK / Fold change vs veh, ADK / RFU, RASSF2 / Fold change vs veh, RASSF2 / RFU, WIPF1 / Fold change vs veh, WIPF1 / RFU, LARP1B / Fold change vs veh, LARP1B / RFU, RASA1 / Fold change vs veh, RASA1 / RFU, RB1 / Fold change vs veh, RB1 / RFU, PPFIA1 / Fold change vs veh, PPFIA1 / RFU, MAT2A / Fold change vs veh, MAT2A / RFU, CCT5 / Fold change vs veh, CCT5 / RFU, WDR92 / Fold change vs veh, WDR92 / RFU, CUX1 / Fold change vs veh, CUX1 / RFU, TTC7A / Fold change vs veh, TTC7A / RFU, TMEM135 / Fold change vs veh, TMEM135 / RFU, DEPTOR / Fold change vs veh, DEPTOR / RFU, CPM / Fold change vs veh, CPM / RFU, DNAJB6 / Fold change vs veh, DNAJB6 / RFU, CACNA2D3 / Fold change vs veh, CACNA2D3 / RFU, DTX4 / Fold change vs veh, DTX4 / RFU, TFCP2 / Fold change vs veh, TFCP2 / RFU, GMCL1 /// GMCL1P1 / Fold change vs veh, GMCL1 /// GMCL1P1 / RFU, AEBP2 / Fold change vs veh, AEBP2 / RFU, SNHG1 /// SNORD22 /// SNORD25 /// SNORD26 /// SNORD27 /// SNORD28 /// SNORD29 /// SNORD31 / Fold change vs veh, SNHG1 /// SNORD22 /// SNORD25 /// SNORD26 /// SNORD27 /// SNORD28 /// SNORD29 /// SNORD31 / Fold change (Aza/veh), C12orf56 (ProbeSet 11735607_a_at) / Fold change (ACY-1035/veh), C12orf56 (ProbeSet 11735607_a_at) / Fold change (Aza/veh), FGFR1OP (ProbeSet 11751329_s_at) / Fold change (ACY-1035/veh), FGFR1OP (ProbeSet 11751329_s_at) / Fold change (Aza/veh), VPS36 (ProbeSet 11739960_a_at) / Fold change (ACY-1035/veh), VPS36 (ProbeSet 11739960_a_at) / RFU SYPL1 (11715823_x_at) / Fold change /veh SYPL1 (11715823_x_at) / RFU IGFBP7 (11715501_s_at) / Fold change /veh IGFBP7 (11715501_s_at) / RFU REEP3 (11722064_at) / Fold change /veh REEP3 (11722064_at) / RFU IGLL1 (11728026_x_at) / Fold change /veh IGLL1 (11728026_x_at): dose or concentration left out as unconfirmed
Conditions: ProbeSet 11721969_s_at; LIST B

SMILES: Nc1ncn([C@@H]2O[C@H](CO)[C@@H](O)[C@H]2O)c(=O)n1 [azacitidine]
- RFU, BDP1: 496.27 RFU
